This is an account of results in patent US20230017045A1, “PYRIDINE AND PYRIMIDINE CARBOXYLATE HERBICIDES AND METHODS OF USE THEREOF” (Dow AgroSciences LLC, priority 2017, published 2023).

Read-outs that look alike come from different tables or passages of the source.

This assay relates to test plant species. As to the kind of experiment: Post-emergent herbicidal activity test (greenhouse, foliar spray, visual growth reduction). The assay is classed as in vivo. The conditions noted are these: post-emergence, 336 h, 140 g ai/ha. Summed up:
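Scoring used a 0 to 100 percent visual scale of growth reduction against solvent-treated controls, read 14 d after spraying. Applications went onto plants at first or second true leaf stage, 187 L/ha, with crop oil concentrate and X-77 surfactant in the carrier. Post-treatment watering was by subirrigation to avoid wash-off.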

[1] abbreviates: ECHCG: barnyardgrass (Echinochloa crus-galli), 14 days after application, read-out: Visual Growth Reduction (%) 14 Days After Application, ECHCG.
Setting [2] is: IPOHE: ivy-leaf morning glory (Ipomoea hederacea), 14 days after application, read-out: Visual Growth Reduction (%) 14 Days After Application, IPOHE.
[3] abbreviates: KCHSC: kochia (Bassia scoparia), 14 days after application, read-out: Visual Growth Reduction (%) 14 Days After Application, KCHSC.
[4] abbreviates: ORYSA: rice (Oryza sativa), 14 days after application, read-out: Visual Growth Reduction (%) 14 Days After Application, ORYSA.
Setting [5] is: SETFA: giant foxtail (Setaria faberi), 14 days after application, read-out: Visual Growth Reduction (%) 14 Days After Application, SETFA.
[6] abbreviates: SORVU: grain sorghum (Sorghum vulgare), 14 days after application, read-out: Visual Growth Reduction (%) 14 Days After Application, SORVU.
Where [7] appears, read: STEME: common chickweed (Stellaria media), 14 days after application, read-out: Visual Growth Reduction (%) 14 Days After Application, STEME.
[8] abbreviates: TRZAS: wheat, spring (Triticum aestivum), 14 days after application, read-out: Visual Growth Reduction (%) 14 Days After Application, TRZAS.
Setting [9] is: blackgrass (Alopecurus myosuroides), 14 Days After Application, read-out: Visual Growth Reduction (%) ALOMY.
The mark [10] stands for this setting: canada thistle (Cirsium arvense), 14 Days After Application, read-out: Visual Growth Reduction (%) CIRAR.
The mark [11] stands for this setting: crabgrass (Digitaria sanguinalis), 14 Days After Application, read-out: Visual Growth Reduction (%) DIGSA.
[12] abbreviates: lambsquarters (Chenopodium album), 14 Days After Application, read-out: Visual Growth Reduction (%) CHEAL.
[13] abbreviates: redroot pigweed (Amaranthus retroflexus), 14 Days After Application, read-out: Visual Growth Reduction (%) AMARE.
Where [14] appears, read: wild oat (Avena fatua), 14 Days After Application, read-out: Visual Growth Reduction (%) AVEFA.
Setting [15] is: yellow nutsedge (Cyperus esculentus), 14 Days After Application, read-out: Visual Growth Reduction (%) CYPES.

As for `O=C(O)c1nc(-c2ccc(C(F)(F)F)c(C(F)F)c2F)c(F)cc1Cl` [F294, 3-Chloro-6-(3-(difluoromethyl)-2-fluoro-4-(trifluoromethyl)phenyl)-5-fluoropicolinic acid], the pest or weed control at 140 g/ha runs as follows: under setting [1], 60 to 74%; under setting [2], 95 to 100%; under setting [3], 75 to 84%; under setting [4], 0 to 29%; under setting [5], 85 to 94%; under setting [6], 95 to 100%. The pest or weed control at 140 g/ha by setting is: under setting [7], 0 to 29%; under setting [8], 60 to 74%; under setting [9], 75 to 84%; under setting [10], 75 to 84%; under setting [11], 85 to 94%; under setting [12], 85 to 94%. The pest or weed control at 140 g/ha reads like this: under setting [13], 95 to 100%; under setting [14], 60 to 74%; under setting [15], 0 to 29%.
Consider `COC(=O)c1nc(-c2ccc(C(F)(F)F)c(OC)c2)c(F)cc1Cl` [F295, Methyl 3-chloro-5-fluoro-6-(3-methoxy-4-(trifluoromethyl)phenyl)picolinate], for which the pest or weed control at 140 g/ha lay in the range of 0 to 29% under setting [1]; 60 to 74% under setting [2]; 0 to 29% under setting [3]; 0 to 29% under setting [4]; 0 to 29% under setting [5]; 0 to 29% under setting [6]. For the same compound, the pest or weed control at 140 g/ha is 0 to 29% under setting [7]; 0 to 29% under setting [8]; 0 to 29% under setting [9]; 60 to 74% under setting [10]; 45 to 59% under setting [11]; 30 to 44% under setting [12]. The pest or weed control at 140 g/ha under setting [13] fell in the range of 0 to 29%, the pest or weed control at 140 g/ha under setting [14] is 0 to 29% and the pest or weed control at 140 g/ha under setting [15] lay within 75 to 84%.
Regarding `COC(=O)c1nc(-c2ccc(C(F)(F)F)c(OC)c2)ccc1Cl` [F296, Methyl 3-chloro-6-(3-methoxy-4-(trifluoromethyl)phenyl)picolinate], the pest or weed control at 140 g/ha was 0 to 29% under setting [1]; 45 to 59% under setting [2]; 0 to 29% under setting [3]; 0 to 29% under setting [4]; 0 to 29% under setting [5]; 0 to 29% under setting [6]. The pest or weed control at 140 g/ha fell in the range of 0 to 29% under setting [7]; 0 to 29% under setting [8]; 0 to 29% under setting [9]; 60 to 74% under setting [10]; 0 to 29% under setting [11]; 0 to 29% under setting [12]. The pest or weed control at 140 g/ha reads like this: under setting [13], 0 to 29%; under setting [14], 0 to 29%; under setting [15], 0 to 29%.
`COC(=O)c1nc(-c2ccc(C(F)(F)F)c3ccoc23)c(F)cc1Cl` [F297, Methyl 3-chloro-5-fluoro-6-(4-(trifluoromethyl)benzofuran-7-yl) picolinate]: the pest or weed control at 140 g/ha is, setting by setting: under setting [1], 0 to 29%; under setting [2], 95 to 100%; under setting [3], 45 to 59%; under setting [4], 0 to 29%; under setting [5], 60 to 74%; under setting [6], 60 to 74%. Further, the pest or weed control at 140 g/ha runs as follows: under setting [7], 0 to 29%; under setting [8], 0 to 29%; under setting [9], 0 to 29%; under setting [10], 85 to 94%; under setting [11], 75 to 84%; under setting [12], 85 to 94%. Further, the pest or weed control at 140 g/ha by setting is: under setting [13], 85 to 94%; under setting [14], 0 to 29%; under setting [15], 0 to 29%.
For the compound `COC(=O)c1nc(-c2ccc(Cl)c(F)c2C)ccc1Cl` [F298, Methyl 3-chloro-6-(4-chloro-3-fluoro-2-methylphenyl) picolinate], the pest or weed control at 140 g/ha under setting [1] is 0 to 29%; the pest or weed control at 140 g/ha under setting [2] fell in the range of 95 to 100%; the pest or weed control at 140 g/ha under setting [3] fell in the range of 0 to 29%; the pest or weed control at 140 g/ha under setting [4] is 0 to 29%; the pest or weed control at 140 g/ha under setting [5] was 75 to 84%; the pest or weed control at 140 g/ha under setting [6] lay within 75 to 84%. Moreover, the pest or weed control at 140 g/ha runs as follows: under setting [7], 0 to 29%; under setting [8], 0 to 29%; under setting [9], 0 to 29%; under setting [10], 60 to 74%; under setting [11], 0 to 29%; under setting [12], 75 to 84%. Further, the pest or weed control at 140 g/ha was 30 to 44% under setting [13], 0 to 29% under setting [14] and 0 to 29% under setting [15].
For `COc1c(Cl)ccc(-c2ccc(Cl)c(C(=O)OCc3ccccc3)n2)c1F` [F299, Benzyl 3-chloro-6-(4-chloro-2-fluoro-3-methoxyphenyl) picolinate], the pest or weed control at 140 g/ha reads like this: under setting [1], 0 to 29%; under setting [2], 60 to 74%; under setting [3], 75 to 84%; under setting [4], 0 to 29%; under setting [5], 0 to 29%; under setting [6], 0 to 29%. In addition, the pest or weed control at 140 g/ha was in the range of 60 to 74% under setting [7]; 0 to 29% under setting [8]; 0 to 29% under setting [9]; 75 to 84% under setting [10]; 0 to 29% under setting [11]; 75 to 84% under setting [12]. Moreover, the pest or weed control at 140 g/ha runs as follows: under setting [13], 60 to 74%; under setting [14], 0 to 29%; under setting [15], 75 to 84%.
Regarding `COc1c(Cl)cc(Cl)c(-c2nc(C(=O)OCc3ccccc3)c(Cl)cc2F)c1F` [F300, Benzyl 3-chloro-6-(4,6-dichloro-2-fluoro-3-methoxyphenyl)-5-fluoropicolinate], the pest or weed control at 140 g/ha was in the range of 0 to 29% under setting [1]; 60 to 74% under setting [2]; 30 to 44% under setting [3]; 0 to 29% under setting [4]; 0 to 29% under setting [5]; 0 to 29% under setting [6]. Also, the pest or weed control at 140 g/ha by setting is: under setting [7], 0 to 29%; under setting [8], 0 to 29%; under setting [9], 0 to 29%; under setting [10], 45 to 59%; under setting [11], 0 to 29%; under setting [12], 75 to 84%. The pest or weed control at 140 g/ha under setting [13] was in the range of 0 to 29%, the pest or weed control at 140 g/ha under setting [14] was in the range of 0 to 29% and the pest or weed control at 140 g/ha under setting [15] lay in the range of 0 to 29%.
Turning to `COC(=O)c1nc(-c2c(Cl)cccc2OC)c(F)cc1Cl` [F301, Methyl 3-chloro-6-(2-chloro-6-methoxyphenyl)-5-fluoropicolinate], the pest or weed control at 140 g/ha runs as follows: under setting [1], 0 to 29%; under setting [2], 0 to 29%; under setting [3], 0 to 29%; under setting [4], 0 to 29%; under setting [5], 0 to 29%; under setting [6], 0 to 29%. In addition, the pest or weed control at 140 g/ha fell in the range of 0 to 29% under setting [7]; 0 to 29% under setting [8]; 0 to 29% under setting [9]; 0 to 29% under setting [10]; 0 to 29% under setting [11]; 0 to 29% under setting [12]. The pest or weed control at 140 g/ha runs as follows: under setting [13], 0 to 29%; under setting [14], 0 to 29%; under setting [15], 0 to 29%.
